The source of these data is ChEMBL document CHEMBL5303764, “Data for DCP probe BI-3812” (2023).

In data set [1] the target is Fibroblast growth factor receptor 1 (Homo sapiens) (UniProt P11362). Kind of data set: FGFR1 Invitrogen Lab (UK) kinase screen (BI). The following applies: Compound concentration 1.0 uM.
For data set [2], the target named is Cannabinoid receptor 2 (Homo sapiens) (UniProt P34972). Description: CB2/PERIPH/H Eurofins SafetyScreen44 (BI). Particulars: Compound concentration 10.0 uM.
Cannabinoid receptor 2 (Homo sapiens), sequence (P34972 whole entry): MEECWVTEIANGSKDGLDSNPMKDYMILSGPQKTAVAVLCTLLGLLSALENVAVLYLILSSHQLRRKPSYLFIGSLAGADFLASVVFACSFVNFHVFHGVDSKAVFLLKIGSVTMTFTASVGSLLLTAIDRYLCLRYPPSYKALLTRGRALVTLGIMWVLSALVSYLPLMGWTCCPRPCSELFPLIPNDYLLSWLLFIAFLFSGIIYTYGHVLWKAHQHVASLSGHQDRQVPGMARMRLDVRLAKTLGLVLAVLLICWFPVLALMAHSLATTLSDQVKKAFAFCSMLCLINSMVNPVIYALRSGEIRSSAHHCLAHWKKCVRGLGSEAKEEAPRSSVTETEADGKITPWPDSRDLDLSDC
Data set [3] deals with High affinity nerve growth factor receptor (Homo sapiens) (UniProt P04629). Kind of data set: NTRK1 Invitrogen Lab (UK) kinase screen (BI). The following applies: Compound concentration 1.0 uM.
The target in data set [4] is Muscarinic acetylcholine receptor M4 (Homo sapiens) (UniProt P08173). Particulars: Compound concentration 10.0 uM.
Muscarinic acetylcholine receptor M4 (Homo sapiens), sequence (P08173 whole entry): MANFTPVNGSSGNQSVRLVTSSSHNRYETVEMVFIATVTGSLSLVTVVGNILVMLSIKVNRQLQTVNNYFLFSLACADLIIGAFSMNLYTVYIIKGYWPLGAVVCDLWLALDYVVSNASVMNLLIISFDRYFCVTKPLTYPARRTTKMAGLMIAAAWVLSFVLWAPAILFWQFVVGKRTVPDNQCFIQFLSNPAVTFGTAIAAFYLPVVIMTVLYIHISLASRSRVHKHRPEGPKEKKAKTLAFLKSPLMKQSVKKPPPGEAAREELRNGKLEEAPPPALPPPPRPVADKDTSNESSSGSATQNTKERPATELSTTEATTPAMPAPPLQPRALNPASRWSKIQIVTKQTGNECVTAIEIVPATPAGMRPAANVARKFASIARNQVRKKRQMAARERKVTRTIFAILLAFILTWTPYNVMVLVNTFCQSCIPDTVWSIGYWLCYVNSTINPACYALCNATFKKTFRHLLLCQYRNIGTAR
Data set [5] has as its target Serine/threonine-protein kinase Chk1 (Homo sapiens) (UniProt O14757). Kind of data set: CHEK1 Invitrogen Lab (UK) kinase screen (BI). The following applies: Compound concentration 1.0 uM.
The target of data set [6] is Beta-1 adrenergic receptor (Homo sapiens) (UniProt P08588). Particulars: Compound concentration 10.0 uM.
Beta-1 adrenergic receptor (Homo sapiens), sequence (P08588 whole entry, looked up): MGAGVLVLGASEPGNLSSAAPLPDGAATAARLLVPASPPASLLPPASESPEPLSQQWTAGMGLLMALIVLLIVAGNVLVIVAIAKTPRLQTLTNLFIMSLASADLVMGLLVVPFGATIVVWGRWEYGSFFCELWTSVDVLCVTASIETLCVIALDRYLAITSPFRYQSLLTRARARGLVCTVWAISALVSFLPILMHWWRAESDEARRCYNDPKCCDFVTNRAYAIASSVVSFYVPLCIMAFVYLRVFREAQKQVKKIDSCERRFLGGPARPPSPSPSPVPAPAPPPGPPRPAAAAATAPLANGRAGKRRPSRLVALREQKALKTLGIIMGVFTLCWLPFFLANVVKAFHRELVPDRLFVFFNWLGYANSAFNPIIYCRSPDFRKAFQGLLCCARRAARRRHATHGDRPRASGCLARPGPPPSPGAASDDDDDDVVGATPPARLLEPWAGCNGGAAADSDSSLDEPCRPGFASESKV
In data set [7] the target is 3',5'-cyclic-AMP phosphodiesterase 4D (Homo sapiens) (UniProt Q08499). Kind of data set: PDE4D2 Eurofins SafetyScreen44 (BI). Particulars: Compound concentration 10.0 uM.
3',5'-cyclic-AMP phosphodiesterase 4D (Homo sapiens), sequence (Q08499 whole entry): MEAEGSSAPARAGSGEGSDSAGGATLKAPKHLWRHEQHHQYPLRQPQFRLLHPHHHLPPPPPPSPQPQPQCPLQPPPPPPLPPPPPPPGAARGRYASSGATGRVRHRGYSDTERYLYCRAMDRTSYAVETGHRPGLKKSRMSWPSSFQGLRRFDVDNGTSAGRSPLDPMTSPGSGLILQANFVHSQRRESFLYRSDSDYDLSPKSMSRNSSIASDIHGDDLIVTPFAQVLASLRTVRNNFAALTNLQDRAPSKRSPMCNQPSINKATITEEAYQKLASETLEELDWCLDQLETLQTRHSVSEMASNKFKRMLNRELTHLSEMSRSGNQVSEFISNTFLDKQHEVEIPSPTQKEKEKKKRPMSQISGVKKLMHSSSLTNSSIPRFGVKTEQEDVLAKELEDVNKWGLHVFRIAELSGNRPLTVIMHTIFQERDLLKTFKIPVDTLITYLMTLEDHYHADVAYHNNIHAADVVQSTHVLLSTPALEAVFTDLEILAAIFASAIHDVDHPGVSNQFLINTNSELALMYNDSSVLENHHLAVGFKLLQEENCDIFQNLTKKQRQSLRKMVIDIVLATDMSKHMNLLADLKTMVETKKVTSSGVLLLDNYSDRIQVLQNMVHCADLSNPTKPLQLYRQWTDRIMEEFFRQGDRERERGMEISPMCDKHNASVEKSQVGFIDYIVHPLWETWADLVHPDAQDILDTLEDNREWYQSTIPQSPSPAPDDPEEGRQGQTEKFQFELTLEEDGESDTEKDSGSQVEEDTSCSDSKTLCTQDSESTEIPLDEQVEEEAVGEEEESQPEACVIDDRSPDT
For data set [8], the target named is MAP kinase-activated protein kinase 2 (Homo sapiens) (UniProt P49137). Description: MAPKAPK2 Invitrogen Lab (UK) kinase screen (BI). The following applies: Compound concentration 1.0 uM.
Data set [9] addresses Cyclin-dependent kinase 2/cyclin A (Homo sapiens) (UniProt P24941+P20248+P78396). Description: CDK2/CYCLINA Invitrogen Lab (UK) kinase screen (BI). The format is protein-complex assay. Particulars: Compound concentration 1.0 uM.
Data set [10] addresses MAO-A (amine oxidase [flavin-containing] A) (Rattus norvegicus, UniProt P21396). Kind of data set: MAO-A_ANTAG Eurofins SafetyScreen44 (BI). The following applies: compound concentration 10 uM, read-out: % Ctrl. Set-up: scale not given: the % may be the effect or the level left.
The target of data set [11] is Serine/threonine-protein kinase TBK1 (Homo sapiens) (UniProt Q9UHD2). Kind of data set: TBK1 Invitrogen Lab (UK) kinase screen (BI). The following applies: Compound concentration 1.0 uM.
The target of data set [12] is Tyrosine-protein kinase Lyn (Homo sapiens) (UniProt P07948). Description: LYN A Invitrogen Lab (UK) kinase screen (BI). Particulars: Compound concentration 1.0 uM.
Data set [13] deals with Histamine H4 receptor (Homo sapiens) (UniProt Q9H3N8). Particulars: Compound concentration 10.0 uM.
Histamine H4 receptor (Homo sapiens), sequence (Q9H3N8 whole entry): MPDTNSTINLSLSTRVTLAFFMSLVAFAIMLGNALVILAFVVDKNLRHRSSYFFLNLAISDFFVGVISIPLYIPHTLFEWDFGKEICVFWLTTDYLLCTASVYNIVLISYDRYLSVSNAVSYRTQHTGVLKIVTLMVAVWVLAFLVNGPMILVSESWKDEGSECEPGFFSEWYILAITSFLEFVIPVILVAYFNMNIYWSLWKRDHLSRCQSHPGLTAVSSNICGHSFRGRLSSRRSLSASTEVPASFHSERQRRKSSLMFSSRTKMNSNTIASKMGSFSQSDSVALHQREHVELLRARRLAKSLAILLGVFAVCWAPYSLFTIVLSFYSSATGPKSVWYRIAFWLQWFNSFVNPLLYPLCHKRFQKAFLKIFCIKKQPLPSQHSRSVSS
Data set [14] concerns the target B-cell lymphoma 6 protein (Homo sapiens, UniProt P41182). Kind of data set: BCL6::NCOR LUMIER in cells.
Data set [15] addresses Muscarinic acetylcholine receptor M2 (Homo sapiens) (UniProt P08172). Kind of data set: M2/H Eurofins SafetyScreen44 (BI). The following applies: filed as antagonist, Compound concentration 10.0 uM.
Data set [16] addresses D(4) dopamine receptor (Homo sapiens) (UniProt P21917). The following applies: Compound concentration 10.0 uM.
Data set [17] deals with Myosin light chain kinase 2, skeletal/cardiac muscle (Homo sapiens) (UniProt Q9H1R3). Description: MYLK2 Invitrogen Lab (UK) kinase screen (BI). Particulars: Compound concentration 1.0 uM.
Data set [18] has as its target Muscarinic acetylcholine receptor M5 (Homo sapiens) (UniProt P08912). Particulars: Compound concentration 10.0 uM.
In data set [19] the target is Insulin receptor (Homo sapiens) (UniProt P06213). Description: INSR Invitrogen Lab (UK) kinase screen (BI). The following applies: Compound concentration 1.0 uM.

Activity calls are given as the source filed them. No cut-off for these calls is given here.

Muscarinic acetylcholine receptor M5 (Homo sapiens), sequence (P08912 whole entry): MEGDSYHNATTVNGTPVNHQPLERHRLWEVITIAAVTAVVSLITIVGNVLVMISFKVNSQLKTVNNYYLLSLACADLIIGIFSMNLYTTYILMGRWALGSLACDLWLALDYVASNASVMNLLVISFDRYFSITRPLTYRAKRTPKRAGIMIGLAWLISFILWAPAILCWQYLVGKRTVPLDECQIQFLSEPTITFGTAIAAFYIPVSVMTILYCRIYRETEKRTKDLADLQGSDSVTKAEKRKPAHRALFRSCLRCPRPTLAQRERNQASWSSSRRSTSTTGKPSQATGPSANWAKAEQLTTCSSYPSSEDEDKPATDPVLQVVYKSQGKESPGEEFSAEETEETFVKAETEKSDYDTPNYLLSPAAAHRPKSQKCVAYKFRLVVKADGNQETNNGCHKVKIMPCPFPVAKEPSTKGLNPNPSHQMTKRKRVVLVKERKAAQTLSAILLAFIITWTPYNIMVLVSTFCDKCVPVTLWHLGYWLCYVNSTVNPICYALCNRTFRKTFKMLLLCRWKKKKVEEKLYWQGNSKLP
D(4) dopamine receptor (Homo sapiens), sequence (P21917 whole entry): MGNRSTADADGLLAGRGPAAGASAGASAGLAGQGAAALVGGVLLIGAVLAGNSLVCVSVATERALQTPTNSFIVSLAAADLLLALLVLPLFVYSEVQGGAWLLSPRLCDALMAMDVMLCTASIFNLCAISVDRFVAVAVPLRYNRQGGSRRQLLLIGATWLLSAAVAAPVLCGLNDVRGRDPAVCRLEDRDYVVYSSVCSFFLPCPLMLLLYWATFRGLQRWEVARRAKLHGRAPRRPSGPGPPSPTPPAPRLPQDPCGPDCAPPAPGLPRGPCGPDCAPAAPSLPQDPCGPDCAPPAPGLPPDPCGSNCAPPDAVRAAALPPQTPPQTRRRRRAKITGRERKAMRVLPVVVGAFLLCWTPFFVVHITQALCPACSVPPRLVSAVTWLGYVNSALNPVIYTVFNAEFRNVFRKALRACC
MAO-A (amine oxidase [flavin-containing] A), sequence (P21396 whole entry): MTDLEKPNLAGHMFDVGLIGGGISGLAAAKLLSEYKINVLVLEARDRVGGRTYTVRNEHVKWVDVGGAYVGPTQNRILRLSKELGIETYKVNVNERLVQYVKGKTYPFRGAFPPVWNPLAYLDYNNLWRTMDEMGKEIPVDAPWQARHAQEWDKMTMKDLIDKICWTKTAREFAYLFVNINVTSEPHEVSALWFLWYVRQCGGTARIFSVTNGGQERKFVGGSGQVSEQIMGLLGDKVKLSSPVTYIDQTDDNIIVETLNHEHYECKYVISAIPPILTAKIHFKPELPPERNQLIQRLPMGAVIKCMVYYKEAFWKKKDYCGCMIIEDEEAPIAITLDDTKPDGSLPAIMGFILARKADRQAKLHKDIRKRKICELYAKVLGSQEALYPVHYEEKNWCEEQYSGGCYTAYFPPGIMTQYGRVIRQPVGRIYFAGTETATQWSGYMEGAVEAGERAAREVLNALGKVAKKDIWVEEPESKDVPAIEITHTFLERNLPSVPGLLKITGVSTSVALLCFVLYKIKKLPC
Serine/threonine-protein kinase Chk1 (Homo sapiens), sequence (O14757 whole entry): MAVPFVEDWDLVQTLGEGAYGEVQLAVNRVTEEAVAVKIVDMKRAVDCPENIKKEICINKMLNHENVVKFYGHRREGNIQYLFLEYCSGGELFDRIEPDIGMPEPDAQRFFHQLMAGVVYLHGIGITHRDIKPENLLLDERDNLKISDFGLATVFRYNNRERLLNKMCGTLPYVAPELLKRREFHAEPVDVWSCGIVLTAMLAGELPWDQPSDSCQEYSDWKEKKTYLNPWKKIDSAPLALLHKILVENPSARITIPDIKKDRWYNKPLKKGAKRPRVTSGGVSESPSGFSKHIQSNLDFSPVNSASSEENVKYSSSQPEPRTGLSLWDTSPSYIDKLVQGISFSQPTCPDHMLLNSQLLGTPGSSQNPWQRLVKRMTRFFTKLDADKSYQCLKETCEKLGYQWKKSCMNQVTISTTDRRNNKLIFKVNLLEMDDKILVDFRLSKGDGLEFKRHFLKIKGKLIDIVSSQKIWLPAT
Muscarinic acetylcholine receptor M2 (Homo sapiens), sequence (P08172 whole entry): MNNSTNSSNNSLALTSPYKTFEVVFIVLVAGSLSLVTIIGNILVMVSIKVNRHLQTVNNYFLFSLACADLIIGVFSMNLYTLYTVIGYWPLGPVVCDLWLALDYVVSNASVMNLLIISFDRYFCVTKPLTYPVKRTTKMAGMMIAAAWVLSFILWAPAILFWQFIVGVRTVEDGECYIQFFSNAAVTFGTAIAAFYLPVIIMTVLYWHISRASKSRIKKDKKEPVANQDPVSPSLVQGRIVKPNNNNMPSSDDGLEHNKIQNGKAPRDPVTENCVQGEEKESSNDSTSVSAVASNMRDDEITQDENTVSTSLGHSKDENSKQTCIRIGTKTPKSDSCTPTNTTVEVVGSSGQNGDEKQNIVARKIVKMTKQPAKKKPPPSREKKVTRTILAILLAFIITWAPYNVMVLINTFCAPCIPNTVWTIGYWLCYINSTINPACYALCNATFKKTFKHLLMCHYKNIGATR

Consider `CNC(=O)COc1cc2cc(Nc3nc(N4CCC(C(=O)N(C)C)CC4)ncc3Cl)cc(OC)c2n(C)c1=O`, for which the residual activity in data set [1] was 86%; in [2], 113%; in data set [3], 96%; in [5], 91%; in data set [7], 121%; in data set [8], 91%. Besides, the residual activity was 88% in data set [9]; 97% in data set [11]; 101% in [12]; 13% in [15]; 101% in data set [17]; 93% in data set [19]. The inhibition is 74.1% in [4]; -5.19% in data set [6]; -1.33% in data set [13]; 17.7% in [16]; -7.06% in [18]. Moreover, the activity at 10 µM in [10] was 103% (not active). The IC50 in data set [14] is 40 nM (active).

One may read the inhibition as the change of the read-out against control, counted positive when it falls. What is called IC50 is the concentration that gives 50% inhibition.
